Like-named read-outs stand apart in the source and are kept apart here.

Data set [1] is described as follows: Rat pharmacokinetics experiments. Type of data set: in vivo, Sprague-Dawley rats. Conditions: for AUC(0-t): read-out: Area under the curve AUC0-24 h; for bioavailability: po. The method, then: Male Spraguee-Dawley rats (body weight: 220 g˜250 g) were purchased from Slac Laboratory Animals (Shanghai). […] Blood samples were taken through the posterior orbital vein and the blood samples were placed in a tube containing EDTA (as an anticoagulant) and stored in a −80° C. environment after centrifugation with a refrigerated centrifuge. Blood sample (at an amount of folds of 25 μL) was taken and cold acetonitrile containing the internal standard (100 μL) was added. Sample was centrifuged for 10 minutes to precipitate the plasma protein. Finally, supernatant (10 μL) was injected into the LC-MS/MS system for analysis.
LC-MS/MS analysis method: All samples were analyzed by LC-MS/MS system of API4000 QTRAP mass spectrometer equipped with LC-20AD and CBM-20A controllers, DGU-20A solvent degasser and SIL-20A autosampler (Japan Shimadzu, Colombia, Md., USA). A Bona Aeger Venusil XBP C18 column (50×2.1 mm; filler 5 micron particle size) was used for HPLC separation. The column temperature was maintained at 40° C. The flow rate was 0.3 mL/min and the total run time was 6 minutes.
For the quantification of MS/MS, the API4000 QTRAP mass spectrometer was operated in an ESI positive mode with multiple reaction monitoring (MRM). All compounds and internal standards were set to be monitored during a residence time of 100 milliseconds. The other MS/MS parameters were set as follows: atomization gas (GS1) at 30 psi, 551b turbine pressure, 4500V ion spray voltage, 500° C. ion source temperature. For the selected ion transitions, each analyte was tested at the optimal sensitivity of the cluster potential (DP) and the collision energy (CE). Finally, the data was collected and processed using AB SCIEX Analysist 1.5.2 data collection and integration software.
Test subjects, Sprague-Dawley rats (body weight from about 220 g to about 250 g), were purchased from Slac Laboratory Animals (Shanghai, China). All compounds tested at 1 mg/mL concentration, either intravenous injected at a tail vein at 1 mL/kg dosage for one group of test subjects or administered orally at a dose of 10 mL/kg in another group of test subjects. Then aliquots of blood samples were collected by retro-orbital venous plexus puncture at time intervals after the injection/administration. The blood samples were kept in tubes containing EDTA, centrifuged and stored at −80° C. before analysis. Blank plasma was collected by the same method before rats were treated with compounds. Plasma samples for analysis were obtained by removing about 25 μL from the saved blood sample; adding cold acetonitrile (about 100 μL) as internal standard; centrifuged for 10 minutes to precipitate plasma proteins; and collect about 10 μL of the upper clear solution for analysis done by an LC-MS/MS system.
All samples were analyzed by an API 4000 QTRAP® LC/MS/MS System equipped with Shimadzu LC-20AD pump, Shimadzu CBM-20A controller, SIL-20A autosampler and DGU-20A degasser (Shimadzu, Columbia, Md., USA). A Venusil XBP C18 HPLC Column (2.1×50 mm, 5 μm) (Bonna-Agela Technologies) was used for HPLC separation at isocratic temperature of 40° C. Flow rate was kept at 0.3 mL/min and the total run time was kept at 6 minutes.
Quantification by MS/MS is done using the above-described API 4000 QTRAP mass spectrometer equipped with multiple reaction monitoring (MRM) and positive electrospray ionization (ESI+) modes. All compounds and internal standard were detected at […] of about 100 milliseconds. Other parameters for MS/MS are shown below: Ion Source Gas 1 (GS1) at 30 psi, turbine pressure at 55 pounds, ion spray voltage at 4500 V, and ion source temperature at 500° C. MRM measurements of the analytes were performed using declustering potential (DP) and […] values optimized for each analyte. Finally, all of the operations, the acquisition and analysis of data were controlled by Analyst (version 1.5.2, AB Sciex, USA).

Data set [2] in a line: Oxidative metabolism found in pharmacokinetic studies. Conditions: benzylic oxidation at the C-5 methylene group.
Data set [3] deals with Hh signaling pathway. Conditions: previous patent; read-out: IC50 of NIH3T3-GRE-Luc, reported in WO2014113191A1; cited from earlier work.
Data set [4] addresses T1, WT-Smo (Homo sapiens, UniProt Q99835).
T1 construct: HA; expressed in transfected cells
Briefly: Bodipy-Cyclopamine binding assay. To be noted: used in the Cheng-Prusoff equation. Here is the method:
Bodipy-Cyclopamine binding assay is a fluorescence based assay used to analysis the binding of Smo agonists. Hek293-SMO stable clones were established by puromycin (1 ug/ml, Invitrogen) selection after transfection with SMO-HA-pLVX plasmid Hek293-SMO cells were maintained in complete culture medium (DMEM with 4 mM L-Gln, 1.5 g/L sodium bicarbonate and 4.5 g/L glucose supplemented with 100 ug/ml hygromycin and 10% FBS). The expression of SMO was validated with western blot and cell immunofluorescence. Bodipy-Cyclopamine was purchased from Toronto Research Chemicals and dissolved in methanol.
Hek293-SMO cells were plated in 96-well-plate (3340, Corning), the final cell concentration is 15,000 cells/well in 100 ul 1% serum-containing DMEM. The plates were incubated in 37 degree for additional 48 hours.
Hek293-SMO plate were washed with PBS and fixed with 4% paraformaldehyde (PFA)/PBS for 20 min at room temperature. After removing the PFA buffer, the cells were incubated with DAPI/PBS (5 ug/mL) for 10 min and followed by twice wash with PBS. […] The fluorescence images were automatically captured and analyzed by a high content fluorescence imaging system (Arrayscan VTI, Thermo). […] IC50 values were calculated with GraphPad Prism software using the sigmoidal dose-response function. The Ki was calculated following the Cheng-Prusoff equation, as Ki=IC50/[1+[bodipy-cyclopamine]/Kd)].

T1 sequence (Q99835 28-787): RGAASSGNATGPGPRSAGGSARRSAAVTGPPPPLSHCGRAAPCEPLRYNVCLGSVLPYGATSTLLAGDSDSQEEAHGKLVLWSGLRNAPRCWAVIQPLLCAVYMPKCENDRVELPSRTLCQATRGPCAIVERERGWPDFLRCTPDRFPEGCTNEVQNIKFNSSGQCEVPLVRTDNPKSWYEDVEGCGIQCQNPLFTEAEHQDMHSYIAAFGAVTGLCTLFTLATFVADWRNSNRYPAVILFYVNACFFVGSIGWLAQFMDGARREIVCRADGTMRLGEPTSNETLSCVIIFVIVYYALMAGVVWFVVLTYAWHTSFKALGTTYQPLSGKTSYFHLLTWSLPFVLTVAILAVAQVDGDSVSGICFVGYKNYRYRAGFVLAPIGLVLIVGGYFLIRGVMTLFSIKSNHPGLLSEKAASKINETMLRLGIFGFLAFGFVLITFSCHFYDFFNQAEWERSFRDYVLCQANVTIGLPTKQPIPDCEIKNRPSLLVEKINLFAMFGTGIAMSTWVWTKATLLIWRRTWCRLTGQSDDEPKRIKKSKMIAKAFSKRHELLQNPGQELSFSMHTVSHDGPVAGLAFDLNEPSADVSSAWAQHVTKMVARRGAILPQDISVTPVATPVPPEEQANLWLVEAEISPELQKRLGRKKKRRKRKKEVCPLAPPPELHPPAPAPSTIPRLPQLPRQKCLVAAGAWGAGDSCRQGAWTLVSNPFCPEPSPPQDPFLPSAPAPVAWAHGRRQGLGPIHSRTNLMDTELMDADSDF

The term clearance denotes a measure of how efficiently the substance is removed, as volume per time. What is called Tmax is the time from dosing to the highest level. By IC50 is commonly meant the concentration that inhibits the measured activity by half. `Cc1cnc(-c2cc(N3CCc4nc(N5CCC(O)CC5)ncc4C3)ncc2Cl)c(C)c1` [Compound A-55, reference compound]: the AUC0-24 h in data set [1] (I.V., 2 mg/kg) stood at 1780 ng·h/mL; in data set [1] (P.O., 10 mg/kg), 5540 ng·h/mL. Also, the CL in data set [1] (I.V., 2 mg/kg) was 18.6 mL/min/kg. In data set [1] (I.V., 2 mg/kg), the t1/2 amounted to 1 h. Besides, the Vd in data set [1] (male, Sprague-Dawley, plasma, intravenous injection, 2 mg/kg, read-out: Apparent volume of distribution Vd, ss) was found to be 1.7 L/kg. Moreover, the AUC(0-t) in data set [1] (male, Sprague-Dawley, plasma, intravenous injection, 2 mg/kg) amounted to 1780 ng·h/mL; in data set [1] (male, Sprague-Dawley, plasma, oral, 10 mg/kg) it was 5540 ng·h/mL. In addition, the clearance in data set [1] (male, Sprague-Dawley, plasma, intravenous injection, 2 mg/kg, read-out: Clearance CL) came to 18.6 mL/min/kg. Further, the half-life in data set [1] (male, Sprague-Dawley, plasma, intravenous injection, 2 mg/kg, read-out: Half-life t1/2 (converted)) is 1 h. Besides, the Cmax in data set [1] (male, Sprague-Dawley, plasma, oral, 10 mg/kg, read-out: Maximum plasma concentration Cmax) was 2180 ng/mL. Also, in data set [1] (male, Sprague-Dawley, plasma, oral, 10 mg/kg, read-out: Peak time Tmax), the Tmax came to 0.5 h. The bioavailability was 62% in data set [1] (male, Sprague-Dawley, plasma, 10 mg/kg, P.O. 10 mg/kg vs I.V. 2 mg/kg, read-out: F %); 62% in data set [1] (male, Sprague-Dawley, plasma, 10 mg/kg, oral 10 mg/kg vs intravenous 2 mg/kg, read-out: Bioavailability F %); 62% in data set [1] (male, Sprague-Dawley, plasma, 10 mg/kg, oral, read-out: bioavailability). The “susceptibility to oxidative metabolism (in words)” value in data set [2] was “easy to metabolized via benzylic oxidation”. Besides, in data set [3], the IC50 is 5.5 nM.
As a reminder, the Kd is the equilibrium constant for the complex coming apart. Take `CC1=C2CC3C(CC=C4C[C@@H](O)CCC43C)C2CCC12O[C@@H]1CC(C)CN(CCNC(=O)CCCCCNC(=O)CCC3=[N+]4C(=Cc5c(C)cc(C)n5[B-]4(F)F)C=C3)C1C2C` (some centres unmarked) [bodipy-cyclopamine]: in data set [4], binding was characterised by a dissociation constant (Kd) of 3.5 ± 0.8 nM.

These data come from patent US10919889B2, “Chiral heterocyclic compound with hedgehog pathway antagonist activity, method and use thereof” (SUZHOU KINTOR PHARMACEUTICALS, INC., priority 2016, dated 2021).
